Laboratory results from patent US12338220B2, “Antiviral pyrazolopiridinone compounds” (Novartis AG, priority 2019, dated 2025).
pEC50, pIC50: −log10 of the molar value. Where two headings read alike, the source gives them in different places.

Columns and labels:
HSV-polymerase = HSV-polymerase (Human herpesvirus 1 (strain 17) (HHV-1) (Human herpes simplex virus 1), UniProt P04293); assay: biochemical
CMV = assay: microbe, parasite or virus in culture; format: cell-based; conditions: Human betaherpesvirus 5, 72 h, read-out: CMV-Luc Cellular EC50, NN-NHDF cells, MOI 1, 72 hrs
CMV-polymerase = CMV-polymerase (Human cytomegalovirus (strain AD169) (HHV-5) (Human herpesvirus 5), UniProt P08546); assay: biochemical
[1] = tested on: HCMV-Rluc virus (AD169 pp28-hRluc rUL131); assay: CMV Luciferase Assay of Compounds 243-262 in ARPE-19 cells; format: cell-based; conditions: Human betaherpesvirus 5, AD169, ARPE-19, 72 h, read-out: CMV-Luc Cellular EC50 in ARPE-19
Experimental: CMV Luciferase Assay of Compounds 243-262.
Compounds 243-262 were tested in a luminescence assay as follows.
ARPE-19 cells were maintained in growth medium (DMEM/F12 Glutamax+10 fetal bovine serum (FBS)+PenStrep) and, before reaching full confluence, were transferred to a centrifuge tube and spun for 5 minutes at 1000 rpm. The cells were resuspended in assay medium (DMEM/F12 Glutamax+2% FBS+PenStrep) and counted. Cell density was adjusted to one million cells per milliliter and infected with HCMV-Rluc virus (AD169 pp28-hRluc rUL131; MOI 0.6) in a 50 ml conical tube for 2 hours while shaking. After dilution of the infectious suspension ten-fold (to 100,000 cells per milliliter), 8000 cells are directly plated in 384-well plates pre-spotted with the compound to be tested. The cells were incubated for 72 hours at 37 degrees Celsius. Cells were then placed at room temperature and allowed to equilibrate for 20 minutes before addition of the Renilla-Glo (Promega) reagent. After a 10-minute incubation at room temperature, luminescence was measured on a microplate reader.

[2] = read-out: CMV-polymerase Biochemical IC50
[3] = read-out: HSV-polymerase Biochemical IC50
[4] = CMV-polymerase Biochemical IC50

Row | SMILES | pIC50 (HSV-polymerase) | pEC50 (CMV) | pIC50 (CMV-polymerase; [2]) | pIC50 (HSV-polymerase; [3]) | pIC50 (CMV-polymerase; [4]) | pEC50 [1]
1 | Cn1nc(C(=O)NCc2ccc(F)cc2)c2c1C(=O)N(CC1(S(=O)(=O)C(C)(C)COCCN)CC1)CC2 [Example 94, 6-((1-((1-(2-aminoethoxy)-2-methylpropan-2-yl)sulfonyl)cyclopropyl)methyl)-N-(4-fluorobenzyl)-1-methyl-7-oxo-4,5,6,7-tetrahydro-1H-pyrazolo[3,4-c]pyridine-3-carboxamide] | 7.27 | 7.66 | 8.05 | – | – | –
2 | Cn1nc(C(=O)NCc2ccc(Cl)cc2)c2c1C(=O)N(CC1(S(=O)(=O)C3(COCCN)CC3)CC1)CC2 [Example 95, 6-((1-((1-((2-Aminoethoxy)methyl)cyclopropyl)sulfonyl)cyclopropyl)methyl)-N-(4-chlorobenzyl)-1-methyl-7-oxo-4,5,6,7-tetrahydro-1H-pyrazolo[3,4-c]pyridine-3-carboxamide] | 7.60 | 7.96 | 8.70 | – | – | –
3 | Cn1nc(-c2cn(Cc3ccc(C#N)cc3)nn2)c2c1C(=O)N(CC1(S(=O)(=O)C(C)(C)CO)CC1)CC2 [Example 105, 4-((4-(6-((1-((1-Hydroxy-2-methylpropan-2-yl)sulfonyl)cyclopropyl)methyl)-1-methyl-7-oxo-4,5,6,7-tetrahydro-1H-pyrazolo[3,4-c]pyridin-3-yl)-1H-1,2,3-triazol-1-yl)methyl)benzonitrile] | 7.49 | 7.38 | 9.00 | – | – | –
4 | Cn1nc(C2=NO[C@@H](c3ccc(C#N)cc3)C2)c2c1C(=O)N(CC1(S(=O)(=O)C(C)(C)CO)CC1)CC2 [Example 107, (R)-4-(3-(6-((1-((1-Hydroxy-2-methylpropan-2-yl)sulfonyl)cyclopropyl)methyl)-1-methyl-7-oxo-4,5,6,7-tetrahydro-1H-pyrazolo[3,4-c]pyridin-3-yl)-4,5-dihydroisoxazol-5-yl)benzonitrile] | – | < 5.00 | 6.06 | < 4.60 | – | –
5 | Cn1nc(C2=NO[C@H](c3ccc(C#N)cc3)C2)c2c1C(=O)N(CC1(S(=O)(=O)C(C)(C)CO)CC1)CC2 [Example 108, (S)-4-(3-(6-((1-((1-hydroxy-2-methylpropan-2-yl)sulfonyl)cyclopropyl)methyl)-1-methyl-7-oxo-4,5,6,7-tetrahydro-1H-pyrazolo[3,4-c]pyridin-3-yl)-4,5-dihydroisoxazol-5-yl)benzonitrile] | – | 7.49 | 9.00 | 7.33 | – | –
6 | Cn1nc(C(=O)NCc2ccc(Cl)cc2)c2c1C(=O)N(CC1(S(=O)(=O)C(C)(C)C(N)=O)CC1)CC2 [Example 109, 6-((1-((1-amino-2-methyl-1-oxopropan-2-yl)sulfonyl)cyclopropyl)methyl)-N-(4-chlorobenzyl)-1-methyl-7-oxo-4,5,6,7-tetrahydro-1H-pyrazolo[3,4-c]pyridine-3-carboxamide] | 7.12 | 7.11 | 8.52 | – | – | –
7 | Cn1nc(C(=O)NCc2ccc(C#N)cc2)c2c1C(=O)N(CC1(S(=O)(=O)C(C)(C)CCO)CC1)CC2 [Example 113, N-(4-Cyanobenzyl)-6-((1-((4-hydroxy-2-methylbutan-2-yl)sulfonyl)cyclopropyl)methyl)-1-methyl-7-oxo-4,5,6,7-tetrahydro-1H-pyrazolo[3,4-c]pyridine-3-carboxamide] | 7.42 | 7.44 | 8.52 | – | – | –
8 | CNS(=O)(=O)C1(CN2CCc3c(C(=O)NCc4ccc(C#N)cc4)nn(C)c3C2=O)CC1 [Example 123, N-(4-cyanobenzyl)-1-methyl-6-((1-(N-methylsulfamoyl)cyclopropyl)methyl)-7-oxo-4,5,6,7-tetrahydro-1H-pyrazolo[3,4-c]pyridine-3-carboxamide] | 6.71 | 6.80 | 8.05 | – | – | –
9 | Cn1nc(C(=O)NCc2ccc(C#N)cc2)c2c1C(=O)N(CC1(S(=O)(=O)N3CC(O)C3)CC1)CC2 [Example 128, N-(4-Cyanobenzyl)-6-((1-((3-hydroxyazetidin-1-yl)sulfonyl)cyclopropyl)methyl)-1-methyl-7-oxo-4,5,6,7-tetrahydro-1H-pyrazolo[3,4-c]pyridine-3-carboxamide] | 6.86 | 7.03 | – | – | 8.30 | –
10 | Cc1cc(NS(=O)(=O)C2(CN3CCc4c(C(=O)NCc5ccc(C#N)cc5)nn(C)c4C3=O)CC2)no1 [Example 165, N-(4-cyanobenzyl)-1-methyl-6-((1-(N-(5-methylisoxazol-3-yl)sulfamoyl)cyclopropyl)methyl)-7-oxo-4,5,6,7-tetrahydro-1H-pyrazolo[3,4-c]pyridine-3-carboxamide] | 7.85 | 6.87 | 9.00 | – | – | –
11 | Cn1nc(C(=O)NCc2ccc(C#N)cc2)c2c1C(=O)N(CC1(S(=O)(=O)C3COC3)CC1)CC2 [Example 168, N-(4-cyanobenzyl)-1-methyl-6-((1-(oxetan-3-ylsulfonyl)cyclopropyl)methyl)-7-oxo-4,5,6,7-tetrahydro-1H-pyrazolo[3,4-c]pyridine-3-carboxamide] | – | 7.14 | – | 7.01 | 8.40 | –
12 | C[C@H](NC(=O)c1nn(C)c2c1CCN(CC1(S(=O)(=O)C(C)(CO)CO)CC1)C2=O)c1ccc(Cl)cc1 [Example 177, (S)-N-(1-(4-Chlorophenyl)ethyl)-6-((1-((1,3-dihydroxy-2-methylpropan-2-yl)sulfonyl)cyclopropyl)methyl)-1-methyl-7-oxo-4,5,6,7-tetrahydro-1H-pyrazolo[3,4-c]pyridine-3-carboxamide] | 6.91 | 6.77 | 8.40 | – | – | –
13 | C[C@@H](NC(=O)c1nn(C)c2c1CCN(CC1(S(=O)(=O)C(C)(CO)CO)CC1)C2=O)c1ccc(Cl)cc1 [Example 178, (R)-N-(1-(4-Chlorophenyl)ethyl)-6-((1-((1,3-dihydroxy-2-methylpropan-2-yl)sulfonyl)cyclopropyl)methyl)-1-methyl-7-oxo-4,5,6,7-tetrahydro-1H-pyrazolo[3,4-c]pyridine-3-carboxamide] | 5.09 | 5.01 | 6.62 | – | – | –
14 | Cn1nc(C(=O)NCc2ccc(C#N)cc2)c2c1C(=O)N(CC1(S(=O)(=O)Nc3cccc(CO)n3)CC1)CC2 [Example 243, N-(4-cyanobenzyl)-6-((1-(N-(6-(hydroxymethyl)pyridin-2-yl)sulfamoyl)cyclopropyl)methyl)-1-methyl-7-oxo-4,5,6,7-tetrahydro-1H-pyrazolo[3,4-c]pyridine-3-carboxamide] | – | – | – | – | – | 6.94
15 | CC(=O)Nc1cccc(NS(=O)(=O)C2(CN3CCc4c(C(=O)NCc5ccc(C#N)cc5)nn(C)c4C3=O)CC2)n1 [Example 244, 6-((1-(N-(6-acetamidopyridin-2-yl)sulfamoyl)cyclopropyl)methyl)-N-(4-cyanobenzyl)-1-methyl-7-oxo-4,5,6,7-tetrahydro-1H-pyrazolo[3,4-c]pyridine-3-carboxamide] | – | – | – | – | – | 6.93
16 | Cn1nc(C(=O)NCc2ccc(C#N)cc2)c2c1C(=O)N(CC1(S(=O)(=O)Nc3cnccn3)CC1)CC2 [Example 245, N-(4-cyanobenzyl)-1-methyl-7-oxo-6-((1-(N-(pyrazin-2-yl)sulfamoyl)cyclopropyl)methyl)-4,5,6,7-tetrahydro-1H-pyrazolo[3,4-c]pyridine-3-carboxamide] | – | – | – | – | – | 6.74
17 | Cn1nc(C(=O)NCc2ccc(C#N)cc2)c2c1C(=O)N(CC1(S(=O)(=O)Nc3ccccc3)CC1)CC2 [Example 246, N-(4-cyanobenzyl)-1-methyl-7-oxo-6-((1-(N-phenylsulfamoyl)cyclopropyl)methyl)-4,5,6,7-tetrahydro-1H-pyrazolo[3,4-c]pyridine-3-carboxamide] | – | – | – | – | – | 7.13
18 | Cn1nc(C(=O)NCc2ccc(C#N)cc2)c2c1C(=O)N(CC1(S(=O)(=O)Nc3ncccc3F)CC1)CC2 [Example 247, N-(4-cyanobenzyl)-6-((1-(N-(3-fluoropyridin-2-yl)sulfamoyl)cyclopropyl)methyl)-1-methyl-7-oxo-4,5,6,7-tetrahydro-1H-pyrazolo[3,4-c]pyridine-3-carboxamide] | – | – | – | – | – | 6.41
19 | Cn1nc(C(=O)NCc2ccc(C#N)cc2)c2c1C(=O)N(CC1(S(=O)(=O)Nc3ccccc3C#N)CC1)CC2 [Example 248, N-(4-cyanobenzyl)-6-((1-(N-(2-cyanophenyl)sulfamoyl)cyclopropyl)methyl)-1-methyl-7-oxo-4,5,6,7-tetrahydro-1H-pyrazolo[3,4-c]pyridine-3-carboxamide] | – | – | – | – | – | 5.00
20 | Cn1nc(C(=O)NCc2ccc(Cl)c(F)c2)c2c1C(=O)N(CC1(S(=O)(=O)C(C)(C)C(O)CO)CC1)CC2 (centres unmarked) [Example 249, N-(4-chloro-3-fluorobenzyl)-6-((1-((3,4-dihydroxy-2-methylbutan-2-yl)sulfonyl)cyclopropyl)methyl)-1-methyl-7-oxo-4,5,6,7-tetrahydro-1H-pyrazolo[3,4-c]pyridine-3-carboxamide] | – | – | – | – | – | 8.08
21 | Cn1nc(C(=O)NCc2ccc(Cl)c(F)c2)c2c1C(=O)N(CC1(S(=O)(=O)C(C)(C)[C@H](O)CO)CC1)CC2 [Example 250, (R)—N-(4-chloro-3-fluorobenzyl)-6-((1-((3,4-dihydroxy-2-methylbutan-2-yl)sulfonyl)cyclopropyl)methyl)-1-methyl-7-oxo-4,5,6,7-tetrahydro-1H-pyrazolo[3,4-c]pyridine-3-carboxamide] | – | – | – | – | – | 7.57
